Data taken from patent US20240197828A1, “Chimeric molecule to treat sepsis and other inflammatory conditions” (THE FEINSTEIN INSTITUTES FOR MEDICAL RESEARCH, priority 2022, published 2024).
Residues, ends and D or L forms follow the SMILES beside them.

System: WT mice
Test: CLP-induced sepsis, 10-day survival
Type: in vivo, mouse
Description: FIG. 6A-6M: MOP3 ameliorates inflammation, lung injury, and improves survival in sepsis. WT mice subjected to CLP-induced sepsis with MOP3 treatment (10 μg/kg) or vehicle (volume-equivalent). After 20 hours, blood and lung tissue collected for respective analyses. (A-C) Serum was analyzed for systemic eCIRP, IL-6, and TNFα levels by ELISA. (D-F) Serum was analyzed for ALT, AST, and LDH by calorimetric assays. (G-I) Lung tissue was frozen and mRNA expression of IL-6, TNFα, and IL-1β was measured by PCR and MPO by calorimetric assay. (J) Lung tissue was frozen and analyzed for MPO levels by calorimetric assay. (K) Lungs were sectioned, imaged for histologic injury by H&E staining, and performed lung injury scoring. (L) Sectioned lungs were stained for TUNEL positive cells and cell counts were quantified. […] Data are expressed as mean±SEM and compared by one-way ANOVA and SNK test. *p<0.05 vs. sham, #p<0.05 vs. CLP vehicle. (M) WT mice subjected to CLP-induced sepsis with MOP3 treatment (10 μg/kg) or vehicle (volume equivalent) and monitored for 10 days for humane endpoints, and differences in survival were determined (N=17 per group). *p<0.05 vs. CLP vehicle. […]
Data represented in the figures are expressed as mean±SEM. […] Survival rates were analyzed by the Kaplan-Meier estimator and compared using a log-rank test. Significant differences between groups were determined by Tukey's method. […]

SMILES: CC(C)C[C@H](NC(=O)[C@H](CC(N)=O)NC(=O)[C@H](Cc1c[nH]c2ccccc12)NC(=O)[C@@H](NC(=O)[C@H](CCCCN)NC(=O)[C@H](Cc1ccc(O)cc1)NC(=O)[C@H](CO)NC(=O)[C@H](CO)NC(=O)[C@H](CO)NC(=O)[C@H](CC(=O)O)NC(=O)CNC(=O)[C@@H](N)CCCNC(=N)N)[C@@H](C)O)C(=O)N[C@@H](CCCNC(=N)N)C(=O)N[C@@H](C)C(=O)N[C@@H](Cc1ccccc1)C(=O)NCC(=O)N[C@@H](Cc1c[nH]c2ccccc12)C(=O)N[C@@H](Cc1ccc(O)cc1)C(=O)O [MOP3, RGDSSSYKTWNLRAFGWY] (H-RGDSSSYKTWNLRAFGWY-OH; N-terminus and C-terminus assumed)
- mortality (CLP, one-time MOP3 dose, monitored 10 days, N=17 per group): 17.6%
- observed phenotypic effects (septic mice, no off-target, pharmacokinetic or toxicity studies performed): lack of observed phenotypic effects
